# Data published in patent US20250250647A1, “STABLE CELL CLONES HARBORING REPLICATING SARS-COV-2 RNA” (priority 2021, published 2025).
# Tested on: SARS-CoV-2-Rep-NanoLuc-Neo-Nsp1^K164A/H165A replicon
# Type: cell-based
# Conditions: read-out: IC50, mean over stable replicon clones
smiles,measurement,value
CC(C)C[C@H](NC(=O)OCc1ccccc1)C(=O)N[C@@H](CC1CCNC1=O)C(O)S(=O)(=O)O (stereo partly shown) [GC376],IC50,9.3 µM
